In this test the target is T1, HCMV V823A/V824L polymerase (Human cytomegalovirus, UniProt P08546, V823A/V824L).
T1 construct: made in house
T1 sequence (P08546 1-1242 V823A/V824L): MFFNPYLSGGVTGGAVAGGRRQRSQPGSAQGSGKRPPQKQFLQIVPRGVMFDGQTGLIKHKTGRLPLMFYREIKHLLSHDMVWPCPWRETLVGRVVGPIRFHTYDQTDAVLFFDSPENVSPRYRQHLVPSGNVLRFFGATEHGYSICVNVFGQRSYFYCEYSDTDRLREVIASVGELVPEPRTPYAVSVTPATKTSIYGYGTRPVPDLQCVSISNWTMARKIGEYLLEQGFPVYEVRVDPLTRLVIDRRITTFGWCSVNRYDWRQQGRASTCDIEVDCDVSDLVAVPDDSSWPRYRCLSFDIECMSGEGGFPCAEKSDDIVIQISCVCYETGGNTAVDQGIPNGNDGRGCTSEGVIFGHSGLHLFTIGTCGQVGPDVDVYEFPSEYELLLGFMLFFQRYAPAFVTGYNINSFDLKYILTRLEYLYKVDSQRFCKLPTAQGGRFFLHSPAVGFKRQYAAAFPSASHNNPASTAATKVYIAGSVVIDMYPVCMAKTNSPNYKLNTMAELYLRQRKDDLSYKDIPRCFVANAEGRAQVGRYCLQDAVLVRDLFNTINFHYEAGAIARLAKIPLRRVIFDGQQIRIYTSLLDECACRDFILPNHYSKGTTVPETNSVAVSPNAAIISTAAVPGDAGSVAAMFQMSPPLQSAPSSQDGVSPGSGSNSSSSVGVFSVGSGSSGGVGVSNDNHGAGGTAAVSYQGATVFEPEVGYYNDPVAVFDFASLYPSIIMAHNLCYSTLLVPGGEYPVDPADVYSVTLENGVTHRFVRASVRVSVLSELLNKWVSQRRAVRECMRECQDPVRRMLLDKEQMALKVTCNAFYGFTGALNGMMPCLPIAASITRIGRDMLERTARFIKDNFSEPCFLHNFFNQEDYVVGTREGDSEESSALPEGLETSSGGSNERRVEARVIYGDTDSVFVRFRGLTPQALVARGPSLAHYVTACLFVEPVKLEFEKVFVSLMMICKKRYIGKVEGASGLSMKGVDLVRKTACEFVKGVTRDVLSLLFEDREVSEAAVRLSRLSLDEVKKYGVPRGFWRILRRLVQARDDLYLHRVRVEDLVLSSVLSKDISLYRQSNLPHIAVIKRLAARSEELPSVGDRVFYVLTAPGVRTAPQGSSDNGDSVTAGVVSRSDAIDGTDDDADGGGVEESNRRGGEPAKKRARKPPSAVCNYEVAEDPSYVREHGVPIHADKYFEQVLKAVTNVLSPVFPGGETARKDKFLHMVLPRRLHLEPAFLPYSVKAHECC
Nature of the test: In vitro polymerase assay, mutant HCMV polymerase V823A/V824L. Format: biochemical. The procedure:
In order to select for a 4-oxo-DHQ HCMV resistant mutant, virus (strain AD169) is serially passaged in the presence of 20 uM a 4-oxo-DHQ. […] In order to determine if both valines need to be changed in order to confer resistance to the 4-oxo-DHQ's, in vitro polymerase assays are done using mutant HCMV polymerases containing either V823A or V823A plus V824L (Table 3).

Under “Table 3”, `Cn1cc(C(=O)NCc2ccc(Cl)cc2)c(=O)c2cc(/C=C\CO)cc(F)c21` [Compound 1] yielded an IC50 of 42.9 µM. Further, under “relative to wild type”, the “increase in resistance, HCMV V823A/V824L polymerase” value was “*Mutation of the amino acid from valine to alanine and amino acid 824 from valine to leucine results in an 9-fold increase in resistance, relative to wild type”.

The values are drawn from patent US6682892B2, “Method for treating herpes viruses” (priority 2000, dated 2004).
